The assay has as its system ex-vivo cultured patient malignant plasma cells (PRMM patient Z01). The assay can be described thus: FACS apoptosis assay (DAPI and Annexin-V) on ex vivo cultured patient cells. Format: cell-based, human. The following applies: resistant PRMM patient Z01, DAPI and Annexin-V FACS. On the procedure:
Finally, it was evaluated whether this synergistic effect is also relevant to PI resistant MM patients. For this end, the present inventors collected BM sample from a highly resistant PRMM patient (Z01, Methods) and sorted the cells for MARS-seq analysis, confirming the patient is also positive for the resistance signature 1 (FIGS. 9E-G). […] The present inventors evaluated the patient ex vivo response to these treatments by FACS analysis of apoptotic cells using DAPI and Annexin-V staining.

In the case of `CC(C)C[C@H](NC(=O)[C@H](CCc1ccccc1)NC(=O)CN1CCOCC1)C(=O)N[C@@H](Cc1ccccc1)C(=O)N[C@@H](CC(C)C)C(=O)[C@@]1(C)CO1` [Carfilzomib], the live cells worked out at 23.4%.

The values above are taken from patent publication US20230272484A1, “METHODS OF PROGNOSING, DETERMINING TREATMENT COURSE AND TREATING MULTIPLE MYELOMA” (Yeda Research and Development Co. Ltd., priority 2020, published 2023).
